Test results reported in patent publication USH1551H, “Topical composition and method for reducing hair loss from human scalp” (priority 1982, dated 1996).

Tests used:
[1] = target: T1, testosterone-5α-reductase (Mesocricetus auratus, UniProt C7T2J7); assay: Inhibitory effect on the reductase activity (testosterone reduced to 5α-DHT, hamster sebaceous gland); type: biochemical; conditions: for inhibition at 100 µM: 10^-4 molar concentration; for inhibition at 100 µM / inhibition at 10 µM: read-out: Rate of inhibition (reductase activity); for inhibition at 10 µM: 10^-5 molar concentration
T1 construct: by using the sebaceous gland at the back of a hamster; from tissue; host or cells: sebaceous gland at the back of a hamster
T1 sequence (C7T2J7 1-255): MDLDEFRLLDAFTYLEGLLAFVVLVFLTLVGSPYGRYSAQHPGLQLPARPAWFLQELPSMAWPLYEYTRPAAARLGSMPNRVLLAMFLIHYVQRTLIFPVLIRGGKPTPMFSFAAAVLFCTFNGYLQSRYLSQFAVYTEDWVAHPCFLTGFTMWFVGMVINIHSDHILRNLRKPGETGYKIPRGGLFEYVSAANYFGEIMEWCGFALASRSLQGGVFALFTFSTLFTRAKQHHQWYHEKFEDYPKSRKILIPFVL
Procedure: Based on the method of Takayasu et al. (The Nishinihon Journal of Dermatology, 43, 1215-1217, 1981), the amount of testosterone reduced to 5α-DHT was measured by using the sebaceous gland at the back of a hamster. The concentrations of the samples used in the experiment were 10^-4 and 10^-5 molar concentrations, respectively. The rate of inhibition was calculated from the following equation using the resulting data.
Rate of inhibition (%)=(C-t/C) ×100
C: the amount of 5α-DHT formed in a control
t: the amount of 5α-DHT formed when the sample was added

[2] = tested on: 5α-DHT receptor protein; assay: Inhibitory effect on binding of 5α-DHT with the receptor protein; conditions: for Rate of inhibition (binding of 5α-DHT with the receptor protein): 10^-6 molar concentration
Procedure: Based on the method of Takayasu et al. (Arch. Dermatol. Res., 264, 50-51, 1979), the amount of 5α-DHT bound with the receptor protein was measured. The concentration of the sample used in the experiment was 10^-6 molar concentration. The rate of inhibition was calculated from the following equation using the resulting data.
Rate of inhibition (%)=(C-t/C)×100
C: the amount of 5α-DHT bound with the receptor protein in a control
t: the amount of 5α-DHT bound with the receptor protein when the sample was added

[3] = Solubility of oxendolone
[4] = tested on: hair and scalp; assay: Toxicity test of the present hair grower (local application); type: in vivo, human; conditions: 0.2% ethanol solution
[5] = tested on: uptake of testosterone into the cells; assay: Inhibition of uptake of testosterone into the cells; type: cell-based
[6] = Acute toxicity (LD50) of oxendolone, mouse; conditions: in vivo
Text: (§1) The systemic acute toxicity of oxendolone is as follows:
(§2) Acute Toxicity (LD50 : mg/kg)

[7] = tested on: head sebum / basal cells of hair; assay: Decrease of head sebum and mitosis of basal cells of hair; conditions: coupled with the defatting actions of ethanol
[8] = Acute toxicity (LD50) of oxendolone, rat; conditions: in vivo
Text: as §1, §2

[9] = tested on: MPB (male pattern baldness); assay: Clinical cases, male pattern baldness (MPB), topical application; type: in vivo, human; conditions: The patient; Resorcinol and other lotions for application
Text: The following preparations were used in the tests (1)-(22). MPB represents male pattern baldness.

C[C@]12CC[C@H]3[C@@H](CCC4=CC(=O)CC[C@@]43C)[C@@H]1CC[C@@H]2C(=O)O [4-androsten-3-one-17β-carboxylic acid]
inhibition at 100 µM [1]: 54 ± 32% | inhibition at 10 µM [1]: 31 ± 19% | Rate of inhibition (binding of 5α-DHT with the receptor protein) [2]: 0%

CC[C@H]1C[C@H]2[C@@H]3CCC4=CC(=O)CC[C@@H]4[C@H]3CC[C@]2(C)[C@H]1O [Oxendolone, 16β-ethyl-17β-hydroxy-4-estren-3-one]
solubility in ethanol ([3]; ethanol): soluble | solubility in vegetable oils, squalane, alcohols, fatty acids, silicone oils, etc. ([3]; vegetable oils etc.): dissolved totally or partially | solubility in water ([3]; water): practically insoluble | local acute toxicity ([4]; 0.05 ml/cm^2, several times a day): No local acute toxicity was observed | other systemic or local side effect ([4]; in the application schedule): No other systemic or local side effect was observed | inhibition of uptake of testosterone into the cells [5]: inhibit uptake of testosterone into the cells | LD50 ([6]; im, female, intramuscular): > 10000 mg/kg | LD50 ([6]; im, male, intramuscular): > 10000 mg/kg | LD50 ([6]; ip, female, intraperitoneal): 2980 mg/kg | LD50 ([6]; ip, male, intraperitoneal): 2930 mg/kg | inhibition at 100 µM [1]: 43 ± 18% | inhibition at 10 µM [1]: 28 ± 28% | inhibitory effect on the reductase activity compared with 4-androsten-3-one-17β-carboxylic acid ([1]; comparison, Table 1): equivalent inhibitory effect on the reductase activity | decrease of head sebum and mitosis of basal cells of hair [7]: synergistically produce a decrease of head sebum and promote the mitosis of basal cells of hair | Rate of inhibition (binding of 5α-DHT with the receptor protein) [2]: 53% | inhibitory effect on the binding of 5α-DHT with the receptor protein compared with 4-androsten-3-one-17β-carboxylic acid ([2]; comparison, Table 2): greater | LD50 ([8]; im, female, intramuscular): > 10000 mg/kg | LD50 ([8]; im, male, intramuscular): > 10000 mg/kg | LD50 ([8]; ip, female, intraperitoneal): 5880 mg/kg | LD50 ([8]; ip, male, intraperitoneal): 6530 mg/kg

Oc1cccc(O)c1 [Resorcinol]
effect of previous treatment, case (9) [9]: no appreciable change
